Consider 11 molecules from ChEMBL document CHEMBL3217673, “Synthesis of cyanine dyes and investigation of their in vitro antiprotozoal activities” (Medchemcomm, 2012).

Series [1] in a line: Selectivity index, ratio of IC50 for rat L6 cells to IC50 for Trypanosoma cruzi Tulahuen C2C4. The following applies: read-out: Ratio IC50. It is filed as toxicity, cell-based.
The next series concerns Trypanosoma cruzi. As to the kind of experiment: Antiprotozoal activity against Trypanosoma cruzi Tulahuen C2C4. The series is classed as functional, organism-based.
A short description of series [2]: Selectivity index, ratio of IC50 for rat L6 cells to IC50 for Trypanosoma brucei rhodesiense STIB900. The settings on record: read-out: Ratio IC50. It is filed as toxicity, cell-based.
The next series deals with L6. In words: Cytotoxicity against rat L6 cells. The series is classed as cell-based.
Another series has as its system Plasmodium falciparum. As to the kind of experiment: Antiprotozoal activity against chloroquine and pyrimethamine-resistant Plasmodium falciparum K1. The series is classed as functional, organism-based.
For the next series, the system named is Leishmania donovani. As to the kind of experiment: Antiprotozoal activity against Leishmania donovani MHOMET-67/L82. It is filed as functional, organism-based.
Series [3] can be described thus: Selectivity index, ratio of IC50 for rat L6 cells to IC50 for chloroquine and pyrimethamine-resistant Plasmodium falciparum K1. The series is classed as toxicity, cell-based. The settings on record: read-out: Ratio IC50.
Series [4] is described as follows: Selectivity index, ratio of IC50 for rat L6 cells to IC50 for Leishmania donovani MHOMET-67/L82. The series is classed as toxicity, cell-based. The settings on record: read-out: Ratio IC50.
Series [5] concerns Trypanosoma brucei rhodesiense. In words: Antiprotozoal activity against Trypanosoma brucei rhodesiense STIB900. The series is classed as functional, organism-based.

A word on the IC50: it is the concentration at which inhibition is half-maximal. High values mean weaker potency, low ones greater potency. As for `CN1/C(=C/C=C/c2sc3ccc(F)cc3[n+]2C)Sc2ccc(F)cc21`, the selectivity ratio amounted to 0.2 in series [1], 2.7 in series [2], 477 in series [3] and 35.8 in series [4]. Besides, the concentration for half-maximal inhibition (IC50) with Trypanosoma cruzi was found to be 2910 nM; with L6, 699 nM; with Plasmodium falciparum, 2 nM; in the series with Leishmania donovani it was 20 nM; in [5], 262 nM.
Turning to `CCN1/C(=C/C=C/c2sc3ccc(F)cc3[n+]2CC)Sc2ccc(F)cc21`, the selectivity ratio in series [1] is 0.7; in series [2], 1.1; in [3] it was 371; in series [4], 30.9. Besides, the half-inhibitory concentration (IC50) in the series with Trypanosoma cruzi came to 1170 nM; in the series on L6, 849 nM; in the series with Plasmodium falciparum, 2 nM; in the series with Leishmania donovani, 28 nM; in [5] it was 769 nM.
Regarding `Cn1/c(=N/C=C/c2sc3ccccc3[n+]2C)sc2ccccc21`, the selectivity ratio in [1] stood at 170; in [2] it was 128; in [3] it was 340; in series [4], 255. The concentration for half-maximal inhibition (IC50) in the series with Trypanosoma cruzi amounted to 16 nM; in the series with L6, 2730 nM; in the series with Plasmodium falciparum, 8 nM; with Leishmania donovani it was 11 nM; in [5], 21 nM.
`Cn1/c(=N/C=C/c2sc3ccc(Cl)cc3[n+]2C)sc2ccccc21`: the selectivity ratio was found to be 1.3 in series [1], 66.3 in series [2], 132 in series [3] and 88.3 in series [4]. In addition, the half-inhibitory concentration (IC50) in the series on Trypanosoma cruzi was 509 nM; with L6, 649 nM; with Plasmodium falciparum, 5 nM; in the series on Leishmania donovani, 7 nM; in series [5] it was 10 nM.
For `Cn1/c(=N/C=C/c2sc3ccc(F)cc3[n+]2C)sc2ccccc21`, the selectivity ratio in series [1] turned out to be 9; in [2], 15.8; in series [3], 153; in series [4], 191. Further, the IC50 in the series on Trypanosoma cruzi was 648 nM; with L6, 5840 nM; in the series on Plasmodium falciparum, 38 nM; in the series with Leishmania donovani, 31 nM; in series [5], 370 nM.
On to `Cn1/c(=N\N/C=C/c2sc3ccccc3[n+]2C)sc2ccccc21`, for which the selectivity ratio in [1] came to 1.7; in [2], 5.5; in [3], 3; in series [4] it was 1.6. The IC50 came out at 12400 nM with Trypanosoma cruzi; 21100 nM with L6; 7020 nM with Plasmodium falciparum; 13100 nM in the series with Leishmania donovani; 3830 nM in [5].
Regarding `Cn1/c(=N\N/C=C/c2sc3ccc(Cl)cc3[n+]2C)sc2ccccc21`, the selectivity ratio was 1 in series [1], 3.6 in [2], 4.2 in series [3] and 1.3 in series [4]. Further, the 50% inhibitory concentration (IC50) in the series on Trypanosoma cruzi came to 11400 nM; with L6 it was 10800 nM; in the series with Plasmodium falciparum, 2600 nM; with Leishmania donovani, 8340 nM; in series [5], 2970 nM.
Consider `Cn1/c(=N\N/C=C/c2sc3ccc(F)cc3[n+]2C)sc2ccccc21`, for which the selectivity ratio in series [1] is 1.3; in series [2], 3.5; in series [3], 2.5; in [4] it was 1.5. Also, the IC50 was 11800 nM in the series with Trypanosoma cruzi; 15500 nM with L6; 6140 nM in the series on Plasmodium falciparum; 10200 nM with Leishmania donovani; 4450 nM in series [5].
As to `CN1/C(=C/C=C/C=C/c2sc3ccccc3[n+]2C)Sc2ccccc21`, the selectivity ratio in series [1] was 29.9; in [2], 137; in series [3], 13.5; in series [4], 12.7. Also, the IC50 in the series with Trypanosoma cruzi is 60 nM; in the series with L6, 1790 nM; in the series with Plasmodium falciparum, 133 nM; in the series with Leishmania donovani, 140 nM; in series [5] it was 13 nM.
For the molecule `CN1/C(=C/C=C/C=C/c2sc3ccc(Cl)cc3[n+]2C)Sc2ccc(Cl)cc21`, the selectivity ratio is 0.3 in [1], 106 in series [2], 13.9 in series [3] and 11.8 in series [4]. The 50% inhibitory concentration (IC50) worked out at 2630 nM in the series on Trypanosoma cruzi; 876 nM in the series with L6; 63 nM in the series with Plasmodium falciparum; 75 nM with Leishmania donovani; 8 nM in [5].
For `CN1/C(=C/C=C/C=C/c2sc3ccc(F)cc3[n+]2C)Sc2ccc(F)cc21`, the selectivity ratio was found to be 1.1 in series [1], 1190 in [2], 9.2 in series [3] and 11.1 in [4]. The IC50 amounted to 1960 nM in the series on Trypanosoma cruzi; 2080 nM in the series with L6; 228 nM in the series on Plasmodium falciparum; 188 nM in the series on Leishmania donovani; 2 nM in [5].
